Like-named read-outs stand apart in the source and are kept apart here. Starred links: 1 amine or outer side, 2 acyl side, 3 side chain; linkers in the order of their positions; H or OH if unused. Non-standard residues stand in square brackets, D forms with d. Residues, ends and D or L forms follow the SMILES beside them. Groups on a side chain read outwards from the residue. *: point of attachment. C18 diacid = O=C(O)CCCCCCCCCCCCCCCCC(=O)*; γGlu = O=C(O)[C@H](CCC(=O)[*:2])N[*:1]; Palmitoyl = CCCCCCCCCCCCCCCC(=O)*; AEEA = NCCOCCOCC(=O)O; Aib = CC(C)(N)C(=O)O
Legend:
[1] = molecular target: T1, human CRF2α receptor (Homo sapiens, UniProt Q13324); assay: cAMP agonism at human CRF2 α receptor in TeloHEAC cells (Example 7); assay type: cell-based; conditions: cAMP HTRF, TeloHEAC cells stably expressing human CRF2 α
T1 construct: expressed in transfected cells; host or cells: TeloHEAC
T1 sequence (Q13324 1-411): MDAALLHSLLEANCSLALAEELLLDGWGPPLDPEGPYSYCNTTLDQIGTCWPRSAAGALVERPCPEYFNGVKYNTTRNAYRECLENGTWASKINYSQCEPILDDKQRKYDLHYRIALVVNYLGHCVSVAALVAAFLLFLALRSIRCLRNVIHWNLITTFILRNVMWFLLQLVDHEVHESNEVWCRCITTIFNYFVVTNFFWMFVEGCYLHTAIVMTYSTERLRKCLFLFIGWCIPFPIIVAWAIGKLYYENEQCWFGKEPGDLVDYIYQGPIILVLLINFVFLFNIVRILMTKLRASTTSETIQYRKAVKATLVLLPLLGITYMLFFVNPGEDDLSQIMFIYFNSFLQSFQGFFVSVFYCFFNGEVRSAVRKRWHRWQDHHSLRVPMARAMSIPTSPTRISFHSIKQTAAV
Summary of the method: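 HTRF ratio 665/620 nm, read 1 h after lysis reagents, reports cAMP. Cells: thawed stocks, 2000/well, 30 min RT with compound in HBSS, 20 mM HEPES, 0 or 0.1% HSA, 2 mM IBMX. Activity normalised to UCN2 1000 nM = 100%; EC50 from half-maximal activation.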

[2] = molecular target: T2, CRF1R receptor (Homo sapiens, UniProt P34998); assay: cAMP activity at anti-target CRF1R, CHO-K1 cell line clone 2 (Example 19.10); assay type: cell-based; conditions: CRF1R CHO-K1 clone 2; for EC50: 0% HSA, read-out: EC50 [nM] 0% HSA; for Emax: 100% = Sauvagine at 100 nM
T2 construct: host or cells: CHO-K1 clone 2
T2 sequence (P34998 24-415): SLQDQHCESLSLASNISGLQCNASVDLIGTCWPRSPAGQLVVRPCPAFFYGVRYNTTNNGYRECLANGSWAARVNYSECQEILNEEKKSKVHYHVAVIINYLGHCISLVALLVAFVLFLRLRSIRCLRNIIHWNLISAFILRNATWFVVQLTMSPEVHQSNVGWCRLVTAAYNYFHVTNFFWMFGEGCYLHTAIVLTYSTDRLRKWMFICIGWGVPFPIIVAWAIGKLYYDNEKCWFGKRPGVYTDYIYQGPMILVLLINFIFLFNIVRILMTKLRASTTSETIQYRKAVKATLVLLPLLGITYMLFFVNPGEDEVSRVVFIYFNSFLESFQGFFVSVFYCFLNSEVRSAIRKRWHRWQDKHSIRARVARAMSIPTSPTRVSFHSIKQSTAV
Experimental: The CRF1R-overexpression CHO-K1 cell line clone 2 was purchased from PerkinElmer.
Cells were grown in a 10 cm dish at 37° C./5% CO2 in medium (F12 (Hams)/10% FBS/400 μg/ml G418) to near confluence. At that stage, cells were harvested, resuspended to 10 million/mL in culture medium without G418 and with 10% DMSO. 1 mL vial aliquots were slowly frozen to -80° C. in isopropanol and then transferred in liquid nitrogen for storage. These vials were used to run the experiment following the procedure reported 10 in the previous paragraph, except for the compound used in the control well to define the 100% activation (Sauvagine at 100 nM)

[3] = 0% HSA, read-out: EC50 [nM], 0% HSA

Row | Compound | EC50 [1, 3] [nM] | EC50 [2] [nM] | Emax [2] [%] | EC50 ([1]; 0.1% HSA, read-out: EC50 [nM], 0.1% HSA) [nM]
1 | CCCCCCCCCCCCCCCC(=O)N[C@@H](CCC(=O)NCCCC[C@H](NC(=O)[C@H](CC(C)C)NC(=O)[C@H](CCCCN)NC(=O)[C@@H](NC(=O)[C@@H]1CCCN1C(=O)[C@H](NC(=O)[C@H](CC(=O)O)NC(=O)[C@H](CC(C)C)NC(=O)[C@H](CO)NC(=O)[C@H](CC(C)C)NC(=O)[C@@H](NC(=O)[C@@H](N)[C@@H](C)CC)C(C)C)C(C)C)[C@@H](C)O)C(=O)N[C@@H](CCCCN)C(=O)N[C@@H](CCCCN)C(=O)N[C@@H](CC(C)C)C(=O)N[C@@H](CC(C)C)C(=O)N[C@@H](CCCCN)C(=O)N[C@@H](CCC(N)=O)C(=O)N[C@@H](CCC(=O)O)C(=O)N[C@@H](CCCNC(=N)N)C(=O)N[C@@H](CCCCN)C(=O)N[C@@H](CCCNC(=N)N)C(=O)N[C@@H](CCCCN)C(=O)N[C@@H](CCC(=O)O)C(=O)N[C@@H](CCCNC(=N)N)C(=O)N[C@@H](CCC(=O)O)C(=O)N[C@@H](CCCCN)C(=O)N[C@@H](C)C(=O)N[C@@H](CCC(=O)O)C(=O)N[C@@H](CCCCN)C(=O)N[C@@H](C)C(=O)N[C@@H](C)C(=O)N[C@@H](CCCNC(=N)N)C(=O)N[C@H](C(=O)N[C@@H](CC(C)C)C(=O)N[C@@H](CCC(=O)O)C(=O)N[C@@H](CCCNC(=N)N)C(=O)N[C@H](C(N)=O)C(C)C)[C@@H](C)CC)C(=O)O [compound 28] (H-IVLSLD[dV]PTKLK([γGlu-Palmitoyl])KKLLKQERKRKEREKAEKAARILERV-NH2; N-terminus assumed) | 0.14 | > 100 | 8.4 | 
2 | CCCCCCCCCCCCCCCC(=O)N[C@@H](CCC(=O)NCCCC[C@H](NC(=O)[C@H](CC(C)C)NC(=O)[C@H](CCCCN)NC(=O)[C@@H](NC(=O)[C@@H]1CCCN1C(=O)[C@H](NC(=O)[C@H](CC(=O)O)NC(=O)[C@H](CC(C)C)NC(=O)[C@H](CO)NC(=O)[C@H](CC(C)C)NC(=O)[C@@H](NC(=O)[C@@H](N)[C@@H](C)CC)C(C)C)C(C)C)[C@@H](C)O)C(=O)N[C@@H](CCCCN)C(=O)N[C@@H](CCCCN)C(=O)N[C@@H](CC(C)C)C(=O)N[C@@H](CC(C)C)C(=O)N[C@@H](CCCCN)C(=O)N[C@@H](CCC(N)=O)C(=O)N[C@@H](CCC(=O)O)C(=O)N[C@@H](CCCNC(=N)N)C(=O)N[C@@H](CCCCN)C(=O)N[C@@H](CCCNC(=N)N)C(=O)N[C@@H](CCCCN)C(=O)N[C@@H](CCC(=O)O)C(=O)N[C@@H](CCCNC(=N)N)C(=O)N[C@@H](CCC(=O)O)C(=O)N[C@@H](CCC(N)=O)C(=O)N[C@@H](C)C(=O)N[C@@H](CCC(=O)O)C(=O)N[C@@H](CCCCN)C(=O)N[C@@H](C)C(=O)N[C@@H](C)C(=O)N[C@@H](CCCNC(=N)N)C(=O)N[C@H](C(=O)N[C@@H](CC(C)C)C(=O)N[C@@H](CCC(=O)O)C(=O)N[C@@H](CCCNC(=N)N)C(=O)N[C@H](C(N)=O)C(C)C)[C@@H](C)CC)C(=O)O [compound 30] (H-IVLSLD[dV]PTKLK([γGlu-Palmitoyl])KKLLKQERKRKEREQAEKAARILERV-NH2; N-terminus assumed) | 0.16 | > 100 | 14.5 | 
3 | CC[C@H](C)[C@H](N)C(=O)N[C@H](C(=O)N[C@@H](CC(C)C)C(=O)N[C@@H](CO)C(=O)N[C@@H](CC(C)C)C(=O)N[C@@H](CC(=O)O)C(=O)N[C@H](C(=O)N1CCC[C@H]1C(=O)N[C@H](C(=O)N[C@@H](CCCCN)C(=O)N[C@@H](CC(C)C)C(=O)N[C@@H](CCCCNC(=O)COCCOCCNC(=O)COCCOCCNC(=O)CC[C@H](NC(=O)CCCCCCCCCCCCCCCCC(=O)O)C(=O)O)C(=O)N[C@@H](CCC(N)=O)C(=O)N[C@H](C(=O)N[C@@H](CC(C)C)C(=O)N[C@@H](CC(C)C)C(=O)N[C@@H](CCCCN)C(=O)N[C@@H](CCC(N)=O)C(=O)N[C@@H](CCC(=O)O)C(=O)N[C@@H](CCCNC(=N)N)C(=O)N[C@@H](CCC(N)=O)C(=O)N[C@@H](CCCCN)C(=O)N[C@@H](CCCCN)C(=O)N[C@@H](CCC(N)=O)C(=O)N[C@@H](CCCNC(=N)N)C(=O)N[C@@H](CCC(=O)O)C(=O)N[C@@H](CCCCN)C(=O)N[C@@H](C)C(=O)N[C@@H](CCCCN)C(=O)N[C@H](C(=O)N[C@@H](CC(N)=O)C(=O)NC(C)(C)C(=O)N[C@@H](CCC(N)=O)C(=O)N[C@H](C(=O)N[C@@H](CC(C)C)C(=O)N[C@@H](C)C(=O)N[C@@H](CCC(N)=O)C(=O)N[C@H](C(N)=O)C(C)C)[C@@H](C)CC)[C@@H](C)O)[C@@H](C)CC)[C@@H](C)CC)C(C)C)C(C)C [compound 88] (H-IVLSLDVPIKLK([AEEA-AEEA-γGlu-C18 diacid])QILLKQERQKKQREKAKTN[Aib]QILAQV-NH2; N-terminus assumed) | 0.68 | > 100 | 2.3 | 25.7

These reach a lower EC50 [1, 3]. Values come first.

Row | EC50 [1, 3] [nM] | EC50 [2] [nM] | Emax [2] [%] | EC50 ([1]; 0.1% HSA, read-out: EC50 [nM], 0.1% HSA) [nM] | Compound
4 | 0.01 | > 100 | 34.2 |  | CCCCCCCCCCCCCCCC(=O)N[C@@H](CCC(=O)NCCCC[C@H](NC(=O)[C@H](CC(C)C)NC(=O)[C@H](CCCCN)NC(=O)[C@@H](NC(=O)[C@@H]1CCCN1C(=O)[C@H](NC(=O)[C@H](CC(=O)O)NC(=O)[C@H](CC(C)C)NC(=O)[C@H](CO)NC(=O)[C@H](CC(C)C)NC(=O)[C@@H](NC(=O)[C@@H](N)[C@@H](C)CC)C(C)C)C(C)C)[C@@H](C)O)C(=O)N[C@@H](CCCCN)C(=O)N[C@@H](CCCCN)C(=O)N[C@@H](CC(C)C)C(=O)N[C@@H](CC(C)C)C(=O)N[C@@H](CCCCN)C(=O)N[C@@H](CCC(N)=O)C(=O)N[C@@H](CCC(=O)O)C(=O)N[C@@H](CCCNC(=N)N)C(=O)N[C@@H](CCCCN)C(=O)N[C@@H](CCCNC(=N)N)C(=O)N[C@@H](CCCCN)C(=O)N[C@@H](CCC(=O)O)C(=O)N[C@@H](CCCNC(=N)N)C(=O)N[C@@H](CCC(=O)O)C(=O)N[C@@H](CCC(N)=O)C(=O)N[C@@H](C)C(=O)N[C@@H](CCC(=O)O)C(=O)N[C@@H](CCCCN)C(=O)N[C@@H](CC(N)=O)C(=O)N[C@@H](C)C(=O)N[C@@H](CCCNC(=N)N)C(=O)N[C@H](C(=O)N[C@@H](CC(C)C)C(=O)N[C@@H](CCC(=O)O)C(=O)N[C@@H](CCCNC(=N)N)C(=O)N[C@H](C(N)=O)C(C)C)[C@@H](C)CC)C(=O)O [compound 27] (H-IVLSLD[dV]PTKLK([γGlu-Palmitoyl])KKLLKQERKRKEREQAEKNARILERV-NH2; N-terminus assumed)
5 | 0.12 | > 100 | 18.4 |  | CCCCCCCCCCCCCCCC(=O)N[C@@H](CCC(=O)NCCCC[C@H](NC(=O)[C@H](CC(C)C)NC(=O)[C@H](CCCCN)NC(=O)[C@@H](NC(=O)[C@@H]1CCCN1C(=O)[C@H](NC(=O)[C@H](CC(=O)O)NC(=O)[C@H](CC(C)C)NC(=O)[C@H](CO)NC(=O)[C@H](CC(C)C)NC(=O)[C@@H](NC(=O)[C@@H](N)[C@@H](C)CC)C(C)C)C(C)C)[C@@H](C)O)C(=O)N[C@@H](CCCCN)C(=O)N[C@@H](CCCCN)C(=O)N[C@@H](CC(C)C)C(=O)N[C@@H](CC(C)C)C(=O)N[C@@H](CCCCN)C(=O)N[C@@H](CCC(N)=O)C(=O)N[C@@H](CCC(=O)O)C(=O)N[C@@H](CCCNC(=N)N)C(=O)N[C@@H](CCCCN)C(=O)N[C@@H](CCCNC(=N)N)C(=O)N[C@@H](CCCCN)C(=O)N[C@@H](CCC(=O)O)C(=O)N[C@@H](CCCNC(=N)N)C(=O)N[C@@H](CCC(=O)O)C(=O)NC(C)(C)C(=O)N[C@@H](C)C(=O)N[C@@H](CCC(=O)O)C(=O)N[C@@H](CCCCN)C(=O)N[C@@H](C)C(=O)N[C@@H](C)C(=O)N[C@@H](CCCNC(=N)N)C(=O)N[C@H](C(=O)N[C@@H](CC(C)C)C(=O)N[C@@H](CCC(=O)O)C(=O)N[C@@H](CCCNC(=N)N)C(=O)N[C@H](C(N)=O)C(C)C)[C@@H](C)CC)C(=O)O [compound 29] (H-IVLSLD[dV]PTKLK([γGlu-Palmitoyl])KKLLKQERKRKERE[Aib]AEKAARILERV-NH2; N-terminus assumed)
